Laboratory results: paper PMC11969024, “Development of chemokine network inhibitors using combinatorial saturation mutagenesis” (Communications Biology, 2025)

Test system: J:CXCR1 cells (Jurkat cells stably transfected with CXCR1)
Assay: J:CXCR1 cell migration induced by CXCL6, inhibition by peptide
Format: cell-based, human
Settings: peptide 10 uM; CXCL6 at EC80; Dunnett's test
Experimental: Cell lines were confirmed mycoplasma free by monthly testing using a MycoAlert^TM kit (LT07-118, Lonza) following the manufacturer’s instructions. THP1 cells: THP1 cells (ECACC 88081201, a human monocyte leukemia cell line[51]) were obtained from ECACC and were cultured in T175 flasks at 0.3-1 × 10^6 cells/mL in Roswell Park Memorial Institute (RPMI) 1640 medium (R0883, Sigma) with 10% FBS (F9665, Sigma) and 5mM L-glutamine (G7513, Sigma), 37 °C, 5% CO2. J:CXCR1 cells: The J:CXCR1 cell line was cultured in the same manner as THP1 cells at 0.15-1 × 10^6 cells per mL[37]. Activated T-cells: T-cells were isolated, activated and expanded as follows. Briefly, density gradient centrifugation using Lymphoprep^TM density gradient medium (07801, […] Technologies) and a SepMate^TM isolation tube (85450, […] Technologies) was used to isolate peripheral blood mononuclear cells from human leukocyte cones. Two rounds of purification using a human CD8 + T-cell isolation kit (480011, BioLegend) were used to isolate CD8 + T-cells from peripheral blood mononuclear cells. Activation of CD8 + T-cells was performed in ImmunoCult^TM-XF T-cell expansion medium (10982, […] Technologies) with an anti-CD3/anti-CD28 T-cell activator at 25 μl/ml (10991, […] Technologies), supplemented with 10 ng/ml recombinant human IL-2 (200-02, PeproTech) with 1% penicillin/streptomycin. […] The final pellet was resuspended in 1 mL of MACS buffer per 5 mL of initial blood volume and counted using cell size FSC-H/SSC-H parameters with gate settings previously defined by immunostaining (see below). […]
Cell counts were determined using an ATTUNE NxT Flow Cytometer with Cytkick autosampler (ThermoFisher), based on cell size parameters FSC-H/SSC-H, with previously defined gate settings. FSC-H/SSC-H gate settings for primary white blood cells from buffy coats were determined using flow cytometry to establish the granulocyte, monocyte and lymphocyte populations (Supplementary Fig. 13). […]

In the case of “EEDDYWAYAPLTCYFT [HD2T6W, HD2 point mutant]”, the “inhibition of CXCL6-induced migration of J:CXCR1 cells compared to parental HD2” value is reported as “significant improvement in inhibition”.
